The assay relates to GBM6 intra-cerebral tumors. Kind of assay: Survival of mice with orthotopic GBM6 tumors after intratumoral virus infusion. It is filed as in vivo, athymic mice. The conditions noted are these: virus 1×10^8 pfu intratumoral day 7; SAHA 25 mg/kg QD PO for 5 days. Here is the method: FIG. 24. SAHA enhances MDA-7/IL-24 toxicity in vivo. GBM6 cells (0.5×10^6) were implanted into the brains of athymic mice. Seven days later tumors were infused with 1×10^8 pfu of either Ad.5/3-cmv or Ad.5/3-mda-7. Twenty-four h after virus infusion animals were treated with vehicle diluent (cremophore, PO) or vorinostat (SAHA, 25 mg/kg QD, PO) for 5 days. Animal survival was monitored on a daily basis (n=2, 8 animals total).
FIG. 25A-E. Ad.5/3-PEG-E1A-mda-7 (Ad.5/3-CTV; Ad.5/3-CTV-M7) prolongs animal survival in a dose-dependent fashion and does so to a greater extent than Ad.5/3- mda-7. Panel A. GBM6-luciferase cells (0.5 ×10^6) were implanted into the brains of athymic mice. Seven days later tumors were infused with 1×10^8 pfu of either: Ad.5/3-cmv: Ad.5/3-mda-7; Ad.5/3-PEG-E1A; or Ad.5/3-PEG-E1A-mda-7 (Ad.5/3-CTV; Ad.5/3-CTV-M7). On the days indicated in the graph animals were injected with luciferin (150 mg/kg) and were imaged 15 min later following placement into an IVIS Xenogen imager. […] Animal survival was monitored on a daily basis (n=2, 6 animals total) ((a) p<0.04 greater survival than Ad.5/3-cmv; (b) p<0.0008 greater survival than Ad.5/3-cmv; (c) p<0.04 greater survival than Ad.5/3-mda-7; (d) p<0.004 greater survival than Ad.5/3-mda-7; (e) p<0.0008 greater survival than Ad.5/3-PEG-E1A-mda-7 (Ad.5/3-CTV; Ad.5/3-CTV-M7) at a dose of 3×10^8 pfu). […]

As for `O=C(CCCCCCC(=O)Nc1ccccc1)NO` [SAHA], the animal survival entry is recorded as “did not significantly enhance animal survival”.

These data come from US10314870B2, “Tropism modified cancer terminator virus (Ad.5/3 CTV;AD.5/3-CTV-M7)” (priority 2012, dated 2019).
